Laboratory results taken from patent publication US20030203966A1, “Nitromethylthiobenzene derivatives as aldose reductase inhihibitors” (priority 1996, published 2003).

Experiments:
aldose reductase = biological target: T1, aldose reductase (Rattus norvegicus, UniProt P07943); experiment: In vitro study: inhibition of aldose reductase; assay type: biochemical, male Wistar rats (lenses); conditions: enzyme from rat lenses; NADPH, L-glyceraldehyde; spectrophotometry at 340 nm
T1 construct: The aldose reductase used is obtained from the lenses of male Wistar rats; from tissue; host or cells: lenses of male Wistar rats
Procedure: 1) In vitro study: inhibition of aldose reductase
The aldose reductase used is obtained from the lenses of male Wistar rats according to a modification of the method by S. Hayman et al. (Journal of Biological Chemistry 240, p. 877, 1965). The enzymatic extract is diluted in a phosphate buffer in the presence of NADPH and various concentrations of the test products. The reaction is triggered with L-glyceraldehyde and the rate of reaction is measured by monitoring the disappearance of the NADPH by spectrophotometry at 340 nm. The rate of reaction is calculated for each concentration of products, and the concentration required for a 50% reduction in the rate of reaction (IC50) is then evaluated by linear interpolation.

[1] = tested on: level of sorbitol in the sciatic nerves; experiment: In vivo study: reduction of the accumulation of sorbitol; parameters: species or system male Wistar rats; conditions: Rattus norvegicus, po; 5 mg/kg/day p.o.; streptozotocin-diabetic rats; sciatic nerve sorbitol, relative to diabetic and non-diabetic animals; read-out: Protection against the increase in sorbitol (%) (5 mg/kg/day p.o.)
Procedure: 2) In vivo study: reduction of the accumulation of sorbitol
Male Wistar rats weighing from 200 to 250 g are made diabetic by intravenous injection of streptozotocin (60 mg/kg). They then receive an oral treatment of the test products, in the form of a suspension, 4 hours, 30 hours and 52 hours after the injection of streptozotocin. 18 hours after the final oral treatment, the rats are sacrificed and decapitated and their sciatic nerves are then removed. After extraction, the level of sorbitol in the nerves is measured, according to the enzymatic method described by H. J. Bergmeyer (Methods of enzymatic analysis, H. U. Bergmeyer ed., Academic Press New York 3, p. 1323, 1974). The percentage of protection is calculated for each product relative to the batch of diabetic animals, taking into account the level of sorbitol in the sciatic nerves of non-diabetic rats.

Cc1cc(NS(=O)(=O)c2ccccc2)cc(C)c1S(=O)(=O)C[N+](=O)[O-] [Example 1]
IC50 (aldose reductase): 8 nM
inhibition in vivo at 5 mg/kg [1]: 65%
melting point: 129 to 131 °C

Cc1cc(NS(=O)(=O)c2ccc(F)c(F)c2)cc(C)c1S(=O)(=O)C[N+](=O)[O-] [Example 10, 3,4-Difluoro-N-[3,5-dimethyl-4-[(nitromethyl)sulphonyl]phenyl]benzenesulphonamide]
IC50 (aldose reductase): 7 nM
inhibition in vivo at 5 mg/kg [1]: 66%
melting point: 158 to 160 °C

Cc1cc(NS(=O)(=O)c2cccc(Br)c2)cc(C)c1S(=O)(=O)C[N+](=O)[O-] [Example 13, 3-Bromo-N-[3,5-dimethyl-4-[(nitromethyl)sulphonyl]-phenyl]benzenesulphonamide]
IC50 (aldose reductase): 8 nM
inhibition in vivo at 5 mg/kg [1]: 70%
melting point: 156 to 158 °C

Cc1cc(NS(=O)(=O)c2ccccc2C(F)(F)F)cc(C)c1S(=O)(=O)C[N+](=O)[O-] [Example 14, N-[3,5-Dimethyl-4-[(nitromethyl)sulphonyl]phenyl]-2-(trifluoromethyl)benzenesulphonamide]
IC50 (aldose reductase): 7 nM
inhibition in vivo at 5 mg/kg [1]: 70%
melting point: 171 to 173 °C

Cc1cc(NS(=O)(=O)c2ccc(F)cc2)cc(C)c1S(=O)(=O)C[N+](=O)[O-] [Example 24, N-[3,5-Dimethyl-4-[(nitromethyl)sulphonyl]phenyl]-4-fluorobenzenesulphonamide]
IC50 (aldose reductase): 8 nM
inhibition in vivo at 5 mg/kg [1]: 80%
melting point: 152 to 154 °C

Cc1cc(NS(=O)(=O)c2cccc(F)c2)cc(C)c1S(=O)(=O)C[N+](=O)[O-] [Example 25, N-[3,5-Dimethyl-4-[(nitromethyl)sulphonyl]phenyl]-3-fluorobenzenesulphonamide]
IC50 (aldose reductase): 7 nM
inhibition in vivo at 5 mg/kg [1]: 85%
melting point: 135 to 137 °C

Cc1cc(NS(=O)(=O)Cc2ccccc2)cc(C)c1S(=O)(=O)C[N+](=O)[O-] [Example 26, N-[3,5-Dimethyl-4-[(nitromethyl)sulphonyl]phenyl]-phenylmethanesulphonamide]
IC50 (aldose reductase): 6 nM
inhibition in vivo at 5 mg/kg [1]: 104%
melting point: 124 to 126 °C

Cc1cc(NS(=O)(=O)c2cccc(F)c2F)cc(C)c1S(=O)(=O)C[N+](=O)[O-] [Example 29, 2,3-Difluoro-N-[3,5-dimethyl-4-[(nitromethyl)sulphonyl]phenyl]benzenesulphonamide]
IC50 (aldose reductase): 7 nM
inhibition in vivo at 5 mg/kg [1]: 71%
melting point: 166 to 168 °C

Cc1cc(NS(=O)(=O)c2cc(F)cc(F)c2)cc(C)c1S(=O)(=O)C[N+](=O)[O-] [Example 30, 3,5-Difluoro-N-[3,5-dimethyl-4-[(nitromethyl)sulphonyl]phenyl]benzenesulphonamide]
IC50 (aldose reductase): 8 nM
inhibition in vivo at 5 mg/kg [1]: 87%
melting point: 187 to 190 °C

Cc1cc(NS(=O)(=O)c2ccccc2F)cc(C)c1S(=O)(=O)C[N+](=O)[O-] [Example 34, N-[3,5-Dimethyl-4-[(nitromethyl)sulphonyl]phenyl]-2-fluorobenzenesulphonamide]
IC50 (aldose reductase): 9 nM
inhibition in vivo at 5 mg/kg [1]: 69%
melting point: 175 to 177 °C

CC(=O)Nc1cccc(S(=O)(=O)Nc2cc(C)c(S(=O)(=O)C[N+](=O)[O-])c(C)c2)c1 [Example 50, N-[3[[3,5-Dimethyl-4-[(nitromethyl)sulphonyl]phenylamino]sulphonyl]phenyl]acetamide]
melting point: 108 to 110 °C

Cc1ccccc1CS(=O)(=O)Nc1cc(C)c(S(=O)(=O)C[N+](=O)[O-])c(C)c1 [Example 51, N-[3,5-Dimethyl-4-[(nitromethyl)sulphonyl]phenyl]-(2-methylphenyl)methanesulphonamide]
melting point: 167 to 169 °C

Cc1cc(NS(=O)(=O)Cc2ccc(Br)cc2F)cc(C)c1S(=O)(=O)C[N+](=O)[O-] [Example 52, 4-Bromo-N-[3,5-dimethyl-4-[(nitromethyl)sulphonyl]-phenyl]-(2-fluorophenyl)methanesulphonamide]
melting point: 152 to 154 °C

Cc1cc(NS(=O)(=O)CC2CCCCC2)cc(C)c1S(=O)(=O)C[N+](=O)[O-] [Example 53, N-[3,5-Dimethyl-4-[(nitromethyl)sulphonyl]phenyl]-cyclohexylmethanesulphonamide]
melting point: 126 to 128 °C
